Experimental data as given in ChEMBL document CHEMBL5303304, “EUbOPEN Chemogenomics Library - IncuCyte” (2023).

Tests used:
Format in all cases: toxicity, cell-based
Fibroblast = assay: Incucyte cell viability with human fibroblast; conditions: 10 µM, compound concentration 10 uM
U2OS = assay: Incucyte cell viability with U2OS; conditions: human, 10 µM, compound concentration 10 uM
HEK-293T = assay: Incucyte cell viability with HEK293T; conditions: human, 10 µM, compound concentration 10 uM
Further: unitless GR value; below 1 slowed growth and below 0 cell loss.

Compound	Growth Rate (Fibroblast; 0 h, replicate number 1)	Growth Rate (Fibroblast; 12 h, replicate number 1)	Growth Rate (Fibroblast; 18 h, replicate number 1)	Growth Rate (Fibroblast; 24 h, replicate number 1)	Growth Rate (Fibroblast; 24 h, replicate number 2)	Growth Rate (HEK-293T; 0 h, replicate number 1)	Growth Rate (HEK-293T; 6 h, replicate number 2)	Growth Rate (HEK-293T; 12 h, replicate number 2)	Growth Rate (HEK-293T; 18 h, replicate number 1)	Growth Rate (HEK-293T; 18 h, replicate number 2)	Growth Rate (HEK-293T; 24 h, replicate number 1)	Growth Rate (HEK-293T; 24 h, replicate number 2)	Growth Rate (Fibroblast; 6 h, replicate number 1)	Growth Rate (Fibroblast; 6 h, replicate number 2)	Growth Rate (Fibroblast; 12 h, replicate number 2)	Growth Rate (U2OS; 0 h, replicate number 1)	Growth Rate (U2OS; 12 h, replicate number 1)	Growth Rate (U2OS; 12 h, replicate number 2)	Growth Rate (U2OS; 18 h, replicate number 1)	Growth Rate (Fibroblast; 18 h, replicate number 2)	other results
O=c1cc(-c2cc(F)c(Cl)nc2Cl)[nH]c2c(-c3ccccc3)c(C(F)(F)F)nn12	-0.22	-0.36	0.57	0.39	1	0.89	0.52	0.74	0.93	0.98	0.8	0.94									Growth Rate (U2OS; 6 h, replicate number 1): 0.78; Growth Rate (U2OS; 18 h, replicate number 2): -0.41
Cc1ccc(C)c(OCCCC(C)(C)C(=O)O[C@@H]2O[C@H](C(=O)O)[C@@H](O)[C@H](O)[C@H]2O)c1	0.21	-1	-0.29	0.68	0.89	0.57	0.49	0.64		0.87		0.91	0.96	-0.9	0.42	0.28	0.78	0.99	0.89		Growth Rate (U2OS; 0 h, replicate number 2): -0.96; Growth Rate (U2OS; 6 h, replicate number 1): 0.4; Growth Rate (U2OS; 6 h, replicate number 2): 0.89; Growth Rate (U2OS; 24 h, replicate number 1): 0.9
Cn1cc(-n2cnc3c(NCc4nc5cc(Cl)c(Cl)cc5[nH]4)nc(N4CCOCC4)nc32)cn1	-1	0.37	0.46	0.54	0	-0.86	-0.51	-0.56	-0.23	-0.48	-0.18	-0.36	0.08	-0.32	-0.22	-0.99	0.64	-0.72	0.1	-0.06	Growth Rate (Fibroblast; 0 h, replicate number 2): -0.31; Growth Rate (U2OS; 0 h, replicate number 2): -0.97; Growth Rate (U2OS; 6 h, replicate number 2): -0.74; Growth Rate (U2OS; 18 h, replicate number 2): -0.54; Growth Rate (U2OS; 24 h, replicate number 1): -0.09; Growth Rate (U2OS; 24 h, replicate number 2): -0.53; Growth Rate (HEK-293T; 0 h, replicate number 2): 0.65; Growth Rate (HEK-293T; 6 h, replicate number 1): -0.17; Growth Rate (HEK-293T; 12 h, replicate number 1): -0.21
CC(C)(O)[C@H]1CC[C@H](Nc2ccc3ncc(-c4cccc(C(F)(F)F)c4)n3n2)CC1 [NUVISERTIB]		-0.53	-0.46	-0.39	-0.47		-0.3	-0.3	-0.39	-0.12	-0.27	-0.02	-0.74	-0.83	-0.72	-0.52	0.46	0.24	0.38	-0.6	Growth Rate (U2OS; 6 h, replicate number 1): 0.88; Growth Rate (U2OS; 6 h, replicate number 2): 0.42; Growth Rate (U2OS; 18 h, replicate number 2): 0.15; Growth Rate (U2OS; 24 h, replicate number 1): 0.32; Growth Rate (U2OS; 24 h, replicate number 2): 0.08; Growth Rate (HEK-293T; 0 h, replicate number 2): -0.24; Growth Rate (HEK-293T; 6 h, replicate number 1): -0.61; Growth Rate (HEK-293T; 12 h, replicate number 1): -0.5
COc1cc(-c2cc3ncccc3c(OC[C@H]3CNC(=O)C3)n2)cc(OC)c1OC1CCOCC1.O=C(O)C(F)(F)F	0.4		1		0.94		-0.14	0.16	0.25	0.34	0.33	0.49	0.72	0.67	0.78	-0.63	0.72	0.93	0.76	0.92	Growth Rate (U2OS; 6 h, replicate number 2): 0.88; Growth Rate (U2OS; 18 h, replicate number 2): 0.85; Growth Rate (U2OS; 24 h, replicate number 1): 0.68; Growth Rate (U2OS; 24 h, replicate number 2): 0.75; Growth Rate (HEK-293T; 0 h, replicate number 2): 0.5; Growth Rate (HEK-293T; 6 h, replicate number 1): 0.2; Growth Rate (HEK-293T; 12 h, replicate number 1): 0.17
CN[C@@H](C)C(=O)N[C@H]1CN(C(=O)CC(C)C)CC[C@H]2CC[C@@H](C(=O)NC(c3ccccc3)c3ccccc3)N2C1=O [XEVINAPANT]		0.68		0.9	0.88	0.08			0.71	0.97	0.92		-0.46	0.35	0.73					0.78	Growth Rate (Fibroblast; 0 h, replicate number 2): 0.68; Growth Rate (U2OS; 0 h, replicate number 2): 0.1; Growth Rate (HEK-293T; 6 h, replicate number 1): 0.36; Growth Rate (HEK-293T; 12 h, replicate number 1): 0.86
C/C=C1\C(=O)CC2C3CCC4=CC(=O)CC[C@]4(C)C3CC[C@]12C (stereo partly specified)		0.83	0.64	0.81	0.9		0.44	0.92	0.83		0.84		-0.19	0.33	0.88	0.15	0.73		0.92	0.96	Growth Rate (U2OS; 6 h, replicate number 1): 0.52; Growth Rate (HEK-293T; 6 h, replicate number 1): 0.43; Growth Rate (HEK-293T; 12 h, replicate number 1): 0.69
Cc1ccc(S(=O)(=O)O)cc1.Cn1cc(-c2ccc(F)c(C(F)(F)F)c2)nc1C1CCN(c2ncnc3[nH]ncc23)CC1	0.54					0.72						0.9	-1			0.87					Growth Rate (Fibroblast; 0 h, replicate number 2): -0.97; Growth Rate (U2OS; 0 h, replicate number 2): -1; Growth Rate (HEK-293T; 0 h, replicate number 2): -0.63
COc1cc(C)c(S(=O)(=O)N(C)CCOCC(=O)N(C)[C@H]2CCC[C@@H](N3CCN(C)CC3)C2)c(C)c1.O=C(O)C(O)C(O)C(=O)O	-1		0.93		0.92								0.87	-0.57	0.57			0.86		0.67	Growth Rate (HEK-293T; 0 h, replicate number 2): 0.26
O=C(N[C@H]1CCCCC/C=C\C2C[C@@]2(C(=O)O)NC(=O)[C@@H]2C[C@@H](Oc3ccncc3)CN2C1=O)OC1CCCC1 (stereo partly specified) [BI 1675]		0.84		0.99		-0.15	0.64	0.89			0.94	0.89	0.23	0.39		0.43	0.68	0.99	0.77	0.91	Growth Rate (U2OS; 6 h, replicate number 1): 0.77; Growth Rate (U2OS; 24 h, replicate number 1): 0.89; Growth Rate (HEK-293T; 0 h, replicate number 2): -0.95
